Data on five compounds can be found in publication PMC7876106 (Scientific Reports, 2021).

One assay has as its system G4 TeloDNA. Briefly: FP assay, compound binding to 5′ fluorescein-labeled TeloDNA. The method, then:
(§1) All the nucleic acids, peptides and chemicals were dissolved in buffer containing 20 mM HEPES pH7.5, 150 mM salt (KCl, NaCl, LiCl) at the stock concentration of 1 mM. For peptide and nucleic acid interactions, 25μL of each nucleic acids with a sequential twofold dilutions starting from 50 μM was added into each well of 96-well plate followed by adding 25μL of 10 nM FITC labeled TRF2 peptide. For compounds and nucleic acid interactions, 20μL of each compounds with a sequential twofold dilutions starting from 50 μM were added into each well of 96-well plate followed by adding 5μL of 20 ng/mL tRNA and 25μL of 10 nM FAM labeled nucleic acids. For inhibition assay, 5μL FITC labeled TRF2 GAR peptide (10 nM final concentration) and 10 μL oligos (5 μM final concentration) were mixed, followed by adding 5μL of each compound with a sequential twofold dilutions starting from 50 μM into each well of 384-well plate. All components were mixed thoroughly, and the plate was incubated at room temperature for 1 h before placing in an Envision Plate Reader for reading at 495/520 nm. All data curves were fitted using Prism 8.0.

The test system of assay [1] is TERRA. Briefly: FP assay, compound binding to 5′ fluorescein-labeled TERRA. As for the experimental part:
as §1

In assay [2] the test system is TeloDNA (5'-fluorescein) (DNA, G4) TTAGGGTTAGGGTTAGGGTTAGGG
Briefly: fluorescence polarization. To be noted: 20 mM HEPES pH 7.5, room temperature; for binding: 150 mM salt (KCl, NaCl or LiCl; which not stated), tRNA competitor, dilutions from 50 μM compound.

Assay [3] concerns TERRA (5'-fluorescein) (RNA, G4) UUAGGGUUAGGGUUAGGGUUAGGG
Briefly: fluorescence polarization. To be noted: 20 mM HEPES pH 7.5, room temperature; for binding: 150 mM salt (KCl, NaCl or LiCl; which not stated), tRNA competitor, dilutions from 50 μM compound. On the technique in general: Fluorescence polarisation rises when a labelled molecule tumbles more slowly, as on binding a larger partner.

Another assay addresses EBNA1 G4 RNA. Briefly: FP assay, compound binding to EBNA1 G4 RNA. The method, then: as §1
Another assay relates to TERRA in LOX cells. The assay is described as follows: TERRA levels by RNA dot blot and Northern blot in LOX cells. In kind it is cell-based, human.
The subject of assay [4] is telomere repeat DNA in LOX cells. The assay is described as follows: Telomere length analysis (PFGE, Southern blot) of LOX cells. As to conditions: TLA. Format: cell-based, human. The method, then: Genomic DNA was isolated from cells using a genomic DNA purification kit (Promega) and digested with AluI and MboI. Digested genomic DNA was purified by phenol/choloroform extraction and quantified using a Qubit 4 Fluorometer (Thermal Scientific). Equal amounts of digested DNA (5 μg) were separated by pulse-field gel electrophoresis (PFGE) performed with a 1% agarose gel at 6V/cm, switch times from 1 to 12s, 15 °C for 12h using CHEF-DRIII system (Bio-Rad). The DNA was transferred to GeneScreen Plus blotting membranes (Perkin-Elmer) and analyzed by Southern blot. The blots were hybridized with a 32P-labeled telomere repeat or […]
Alu probe at 42 °C overnight, then washed twice for 5 min each with 0.2 M wash buffer (0.2 M Na2HPO4 pH 7.2, 1 mM EDTA, and 2% SDS) at room temperature and once for 10 min with 0.1 M wash buffer at 42°C. Relative telomere-repeat signals were determined by Typhoon 9410 Imager and ImageQuant TL software (GE Healthcare). Signal intensity represents the percentage decrease of average telomere signals relative to dox (-) or PP control. […]
(§2) 100, 1 mM EDTA in 1x PBS) before immuno-staining. Primary antibodies were prepared in blocking solution at following dilutions: anti-53BP1 (1:500, IHC-00001; Bethyl Laboratories) and γH2AX (1:2,000, A300-081A; Bethyl Laboratories). After IF, cells were fixed in 4% paraformaldehyde in 1x PBS for 10 min, washed in 1x PBS, dehydrated in ethanol series (70%, 95%, 100%), and air-dried. Coverslips were denatured for 5 min at 80-85° C in hybridization mix [70% formamide, 10 mM Tris-HCl, pH 7.2, and 0.5% blocking solution (Roche)] containing telomeric PNA-Cy3-(CCCTAA)3 probe, and hybridization was continued for 2 hrs at room temperature in the dark moisturized chambers. Coverslips were washed twice for 15 min each with 70% formamide, 10 mM Tris-HCl (pH 7.2), and 0.1% BSA, and followed by three washes for 5 min each with 0.15 M NaCl, 0.1 M Tris-HCl (pH 7.2), and 0.08% Tween-20. Nuclei were counterstained with 0.1 µg/ml DAPI in blocking solution and coverslips mounted with VectorShield (Vector Laboratories). RNA FISH was performed as previously described 1.
Images were captured with a 100x lens on a Nikon E600 Upright microscope (Nikon

For assay [5], the system named is TERRA. The assay is described as follows: CD spectroscopy of TERRA mixed with compound. To be noted: 1:1 molar ratio, 150 mM KCl buffer. The method, then: All nucleic acids were dissolved in buffer containing 20 mM HEPES pH7.5, 150 mM salt (KCl or LiCl), 20% PEG8000 at the concentration of 10 μM for experiments. A J-815 spectrometer equipped with a PFD-425S Peltier cell holder was used to measure CD spectra at 4 °C between 200 and 340 nm to determine the secondary structure content of various oligo constructs. The molar ellipticity was calculated and the plot was made using Excel.

The target in the next assay is TeloDNA and TRF2 complex. Briefly: FP inhibition assay, TRF2 GAR binding to TeloDNA. As for the experimental part:
as §1

The next assay concerns the target TERRA and TRF2 complex. Briefly: FP inhibition assay, TRF2 GAR binding to TERRA. As to conditions: FP. As for the experimental part:
as §1

In assay [6] the test system is TRF2 binding to telomere DNA. The assay is described as follows: DNA ChIP assay of TRF2 binding to telomere DNA in LOX cells. In kind it is cell-based, human. As to conditions: 2 μM, 2 days. The method, then: The lysates were sonicated, cleared by centrifugation, and supernatants were diluted 10 fold into IP Buffer (0.01% SDS, 1.1% Triton X-100, 1.2mM EDTA, 16.7mM Tris pH 8.1, 167mM NaCl, protease inhibitors cocktail, 50U/ml SUPERase•in) for IP reaction with rabbit IgG (Santa Cruz Biotechnology) or rabbit polyclonal anti-TRF2 (Pocono Rabbit Farm) at 4 ° C overnight. Each immune complex was collected by Dynal A beads (Invitrogen), washed five times (1 ml wash, 10 mins each) in ChIP related wash buffer at 4 ° C, eluted by addition of 200µl Elution buffer (10mM Tris, pH 8.0, 5mM EDTA, 1% SDS, 50U/ml SUPERase.In) at 70 °C for 20 mins, and the elutes were placed at 70 °C for 2 hrs to reverse cross-linking. […]
DNA ChIP assays was performed as described previously 3 with minor modifications. Briefly, 1 x 10^7 LOX cells treated with indicated chemicals (2 µM) for 48 hrs were subject to ChIP analysis and immunoprecipitated DNA was assayed by DNA dot-blot using 32P-labeled (TTAGGG)4 or Alu probe. […]

The subject of another assay is LOX cells. Briefly: TIF assay (IF FISH, γH2AX or 53BP1 with telomere DNA) in LOX cells. In kind it is cell-based, human. To be noted: 2 μM, 3 days. The method, then:
Mei et al, 2020 TERRA Requires TRF2 GAR Domain […]
as §2, with “Indirect immunofluorescence (IF) combined with fluorescence in situ hybridization (FISH) analysis for telomere dysfunction was performed as described 4 with some modifications. Briefly, cells grown on coverslips were fixed for 15 min in 2% paraformaldehyde/1x PBS at RT, followed by permeabilization for 10 min in 1x PBS/0.5% Triton X-100 at RT. After washing with 1x PBS, cells were incubated for 60 min in blocking solution (0.5% BSA, 0.2% fish gelatin, 0.1% Triton X-100,” for “100,”
Images were captured with a 100x lens on a Nikon E600 Upright microscope (Nikon […]
Instruments, Inc., Melville, NY) with ImagePro Plus software (Media Cybernetics, Silver Spring, MD) for image processing. Cells with > 5 53BP1/γH2AX foci co-localizing with telomere DNA foci were scored as positive for TIF. The quantification was generated from at least three independent Immuno-FISH experiments. […]
0.1 μg/mL DAPI in 1x PBS and slides were mounted with VectorShield (Vector Laboratories).
Images were taken with a 100x lens on a Nikon E600 Upright microscope (Nikon Instruments) using ImagePro Plus software (Media Cybernetics) for image processing. Statistical analysis was performed using two-tailed Student t Test.

The test system of assay [7] is TERRA antisense (5'-fluorescein) (RNA, single strand) CCCUAACCCUAACCCUAACCCUAA
The assay is described as follows: fluorescence polarization. To be noted: 150 mM salt (KCl, NaCl or LiCl; which not stated); 20 mM HEPES pH 7.5, room temperature, tRNA competitor; dilutions from 50 μM compound.

The test system of assay [8] is TeloDNA antisense (5'-fluorescein) (DNA, single strand) CCCTAACCCTAACCCTAACCCTAA
The assay is described as follows: fluorescence polarization. To be noted: 150 mM salt (KCl, NaCl or LiCl; which not stated); 20 mM HEPES pH 7.5, room temperature, tRNA competitor; dilutions from 50 μM compound.

For assay [9], the system named is TERRA (unlabelled) (RNA, G4) UUAGGGUUAGGGUUAGGGUUAGGG
Briefly: fluorescence polarization, displacement of TRF2 GAR peptide. To be noted: 150 mM salt (KCl, NaCl or LiCl; which not stated); 20 mM HEPES pH 7.5, room temperature; FITC-TRF2 GAR peptide 10 nM; 5 μM oligo; dilutions from 50 μM compound.

For assay [10], the system named is TeloDNA (unlabelled) (DNA, G4) TTAGGGTTAGGGTTAGGGTTAGGG
The assay is described as above. To be noted: 150 mM salt (KCl, NaCl or LiCl; which not stated); 20 mM HEPES pH 7.5, room temperature; FITC-TRF2 GAR peptide 10 nM; 5 μM oligo; dilutions from 50 μM compound.

Where [11] appears, read: 10 nM fluorescein-labeled probe, 3 independent experiments.
The mark [12] stands for this setting: 150 mM KCl, NaCl or LiCl (salt not specified), 20 mM HEPES, tRNA competitor added, 10 nM probe, apparent.

Structures are written as SMILES. pEC50: −log10 of the molar value.

Usually pEC50 stands for −log10 of the EC50, conventionally taken in molar units. Low readings indicate a large EC50, high ones a small EC50. As usually defined, the EC50 is the concentration giving half of the maximal effect.

Regarding `COS(=O)(=O)[O-].Cc1cc2c3c([n+](C)c4ccc(F)cc4c3c1)-c1cc(F)ccc1N2C` [RHPS4, acridinium methosulfate], the “binding activity for G4 TeloDNA” value in the assay with G4 TeloDNA is on record as “only PDS bound”. Further, the “binding to TERRA” value in the assay with TERRA [1] is reported as “only PDS bound”. For the same compound, the binding entry in [2] and in [3] was “no” each time.

With `NCCOc1cc(C(=O)Nc2cc(OCCN)c3ccccc3n2)nc(C(=O)Nc2cc(OCCN)c3ccccc3n2)c1` [PDS, pyridostatin], the pEC50 on G4 TeloDNA (setting [11]) was 7.30; at TERRA [1] (setting [11]) it was 6.18; at EBNA1 G4 RNA, 6.70. For the same compound, in the assay on EBNA1 G4 RNA, the “binding to EBNA1 G4 RNA” value is “high binding affinity”. Moreover, the “total TERRA levels relative to PP control” value in the assay with TERRA in LOX cells (2 μM, 3 days, RNA dot blot and Northern blot) is on record as “also reduced TERRA levels”. Further, in assay [4], the “telomere repeat DNA signals” value is listed as “to a lesser extent”. Further, the EC50 in assay [2] (setting [12]) was 50 nM; in assay [3] (setting [12]), 660 nM.

As for `C=CC1=C(C)c2cc3[nH]c(cc4nc(cc5[nH]c(cc1n2)c(C)c5CCC(=O)O)C(CCC(=O)O)=C4C)c(C)c3C=C` [PP, protoporphyrin IX], the “binding activity for G4 TeloDNA” value in the assay on G4 TeloDNA is recorded as “no binding activity”. Further, the “binding to TERRA” value in the assay on TERRA [1] is reported as “no measurable affinity”. For the same compound, the “binding to EBNA1 G4 RNA” value in the assay on EBNA1 G4 RNA is on record as “did not display any binding”. Moreover, the “alteration of CD spectrum of TERRA at major peak (~260 nm)” value in the assay on TERRA [5] is reported as “not BRACO-19 or PP altered the CD spectrum”. Moreover, the “IC50 for TRF2 GAR-TeloDNA” value on TeloDNA and TRF2 complex is recorded as “no measurable IC50”. Further, at TERRA and TRF2 complex, the “IC50 for TRF2 GAR-TERRA” value was “no measurable IC50”. The “effect on TRF2 binding to telomere DNA” value in assay [6] is given as “Neither NMM, PP, nor BRACO-19 had any significant effect”. The “accumulation of TERRA as a shorter form” value in the assay on TERRA in LOX cells (2 μM, 3 days, Northern blot) is reported as “not observed”. Moreover, the “level of γH2AX or 53BP1 associated telomere dysfunction-induced foci (TIFs)” value in the assay on LOX cells is recorded as “equivalent to background”. The binding entry in [2], in [3], in assay [7], in [8], in assay [9] and in assay [10] was “no” each time.

Consider `C[n+]1cc(NC(=O)c2ccc3ccc4ccc(C(=O)Nc5cc6ccccc6[n+](C)c5)nc4c3n2)cc2ccccc21` [Phen-DC3], for which the “binding activity for G4 TeloDNA” value in the assay with G4 TeloDNA is “only PDS bound”. The “binding to TERRA” value with TERRA [1] is “only PDS bound”. The binding entry in assay [2] and in assay [3] was “no” in each case.

With `C[C@H]1c2cccc(O)c2C(=O)C2=C(O)[C@]3(O)C(=O)C(C(N)=O)=C(O)[C@@H](N(C)C)[C@@H]3[C@@H](O)[C@@H]21` [Dox, doxycycline], the “effect of Dox treatment on TERRA” value in the assay on TERRA in LOX cells (doxycycline 1 µg/ml, 2 days, RNA dot blot) is given as “no effect on TERRA”.
